# Laboratory results from patent US20210360924A1, “PLANT OR SEED COATING” (University of Southampton, priority 2017, published 2021).
# Entries after “also recorded” stand apart in the source; their conditions may differ.
# How the values were obtained:
# [1] = system: G. pallida J2s; experiment: Root invasion assay on potato hairy root cultures; assay type: in vivo, Globodera pallida; settings: J2s pre-incubated 24 h with 100 μM compound
# Method: J2s of G. pallida were first sterilised with 0.1% chlorhexidine digluconate, 0.5 mg/ml CTAB for 25 mins and washed three times with sterile 0.01% Tween-20. The J2s were then incubated with gentle agitation for 24 hours in water, 100 μM reserpine phosphate, 100 μM methiothepin, 100 μM CPA or 2 mM fluoxetine prior to inoculation of potato hairy root cultures with 25 J2s per infection point and 3 infection points per root system. Hairy root cultures were generated using Agrobacterium rhizogenes R1000 and multiplied. Individual root systems of equivalent size growing on 9 cm plates containing Murashige and Skoog basal medium (Duchefa, Suffolk, UK) with 2% sucrose were selected for inoculation. Nine to 11 replicate plates were used for each treatment or control. Roots were stained with acid fuchsin 13 days after infection and the number of nematodes in each root system counted. Each complete invasion assay was carried out on two separate occasions.
# [2] = system: C. elegans TPH-1; experiment: Pharyngeal pumping of C. elegans on food with CPA; assay type: in vivo
# Method: (§1) Experiments were performed on one day old age synchronised worms by picking L4 stage a day before the assay. Due to the translucent nature of the worm, pharyngeal pumping may be scored in the intact animals by counting the movements of the grinder in the terminal bulb: one complete up and down motion is counted as a single pharyngeal pump. The number of pharyngeal pumps was counted on E. coli OP50 in N2, in the mutants tph-1 (mg280), ser-7 (tm1325), cat-1 (ok411) and in mutants with ectopic expression of C. elegans (ce) or G. pallida (ppn) tph-1, ser-7 or cat-1 in all of the neurons (Psnb-1 promoter).
# (§2) To test the effects of CPA (4-chloro-DL-phenylalanine methyl ester hydrochloride) on pharyngeal pumping one day old adult C. elegans for N2, tph-1 (mg280) and tph-1-1 (mg280) with ectopic expression of C. elegans (ce) or G. pallida (Gpa) tph-1 were placed onto E. coli OP50 containing CPA on NGM plates and the number of pharyngeal pumps on food per min was scored after 2 and 18 hours.
# [3] = system: G. pallida J2s; experiment: G. pallida stylet thrusting assay; assay type: in vivo, Globodera pallida; settings: for effect on stylet behaviour: concentrations up to 10 mM (data not shown); for stimulation of stylet thrusting by the compound itself: J2s in compound alone; for exposure time at which maximal stylet response was seen / maximally effective concentration for stylet thrusting / effect on S-shaped posture and reduced movement induced by fluoxetine: in vivo; for effect on stylet response to fluoxetine / effect on stylet response to exogenous serotonin: 24 h presoak
# Method: Stylet thrusting assays were conducted in 20 mM HEPES buffered ddH2O, with pH adjusted to 7.4 with NaOH. J2s were pipetted into 3 ml of the test solutions in 30 mm petri dishes and the number of stylet thrusts per minute was counted at various time points as stated in figure legends. A single movement of the stylet knob forwards and then backwards to its original position was counted as one stylet thrust. Control assays were conducted in the presence of either 20 mM HEPES alone or 20 mM HEPES with drug vehicle, as indicated in figure legends. All assays were conducted at room temperature (20-22° C.). All drug solutions were made up on the day of use. Each solution contained 0.01% bovine serum albumin to prevent worms from sticking to the Petri dish. Reserpine was dissolved in 100% acetone and then 1 in 200 dilution was made using Hepes buffer (pH 7.4). […] Final concentration 50 μM reserpine.
# For experiments in which J2s were pre-treated with reserpine phosphate or CPA, the worms were pre-soaked in the drug solutions for 24 hours.
# [4] = system: G. pallida TPH-1; experiment: Pharyngeal pumping on food with CPA, tph-1 (mg280) expressing G. pallida tph-1; assay type: in vivo, Globodera pallida; settings: tph-1 mutant expressing G. pallida tph-1
# Method: as §1, §2
# [5] = system: C. elegans; experiment: Pharyngeal pumping of intact C. elegans off food with fluoxetine; assay type: in vivo, Caenorhabditis elegans
# Method: as §1
# To test the effects of fluoxetine one day old C. elegans for N2, cat-1 (ok411) and cat-1 (ok411) with ectopic expression of C. elegans (ce) or G. pallida (Gpa) cat-1 were placed onto unseeded NGM plates containing fluoxetine and the number of pharyngeal pumps per min was scored after 1 h and 18 h.
# [6] = system: G. pallida; experiment: Hatching of J2s from cysts/eggs; design: species or system Globodera pallida; settings: in vivo
# [7] = molecular target: T1, C. elegans SER-7 (Caenorhabditis elegans, UniProt Q22895); experiment: Cut head pharyngeal pumping assay
# T1 sequence (Q22895 1-435): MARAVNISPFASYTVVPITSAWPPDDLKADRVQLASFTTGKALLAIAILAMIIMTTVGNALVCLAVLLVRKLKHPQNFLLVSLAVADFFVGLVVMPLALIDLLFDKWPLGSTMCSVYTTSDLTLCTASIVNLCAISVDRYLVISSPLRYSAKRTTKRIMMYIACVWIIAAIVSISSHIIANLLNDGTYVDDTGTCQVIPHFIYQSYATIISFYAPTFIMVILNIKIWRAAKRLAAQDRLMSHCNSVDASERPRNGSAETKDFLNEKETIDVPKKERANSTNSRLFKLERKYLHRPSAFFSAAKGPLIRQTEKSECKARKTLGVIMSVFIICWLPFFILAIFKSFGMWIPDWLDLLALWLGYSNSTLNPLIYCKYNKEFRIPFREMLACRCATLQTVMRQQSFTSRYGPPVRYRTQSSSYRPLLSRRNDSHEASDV
# Method: Additionally, an intact pharynx containing a terminal bulb was dissected from the rest of the worm with a razor blade. The pharyngeal preparation was placed into 3 ml of Dent's saline (with 0.1% BSA and the drugs 5-HT or methiothepin) in a 25 mm Petri dish. Pharyngeal pumps were scored visually, as for the intact worms, for 1 min. For controls, the pharyngeal pumping was scored in Dent's saline (0.1% BSA) without drugs with appropriate vehicle controls.
# [8] = system: G. pallida MOD-1; experiment: Thrashing paralysis assay, mod-1 (ok103) expressing G. pallida mod-1; assay type: in vivo, Globodera pallida; settings: worms expressing G. pallida mod-1; 10 μM methiothepin; 33 mM serotonin
# Method: (§3) For the methiothepin treatment group, 10 μM methiothepin was included in the wells of the microtitre plate. Wild type (N2), mod-1 (ok103), and the transgenic strains expressing gpa-mod-1 in mod-1 (ok103) were tested.
# [9] = system: C. elegans MOD-1; experiment: Thrashing paralysis assay (serotonin-induced paralysis), wild type; assay type: in vivo, Caenorhabditis elegans; settings: wild type worms; 10 μM methiothepin; 33 mM serotonin
# Method: as §3
# [10] = molecular target: G. pallida SER-7 (Globodera pallida, UniProt A0A183BS20, DEL280-286/G462A/H333Q/S454N/S6T/Y334H); experiment: Cut head pharyngeal pumping assay, ser-7 (tm1325) expressing Gpa-ser-7; settings: 100 nM; transgenics expressing G. pallida ser-7; 100 μM serotonin
# [11] = system: G. pallida J2s; experiment: G. pallida dispersal (motility) assay on agar arena; assay type: in vivo, Globodera pallida; settings: pre-incubation with 50 μM for 18 h
# Method: Dispersal assays were performed on 5 cm plates filled with 10 ml of 2% agarose. […] For the reserpine assays worms were pre-soaked in the compound for 18 h. On the day of the assay 100 μl of potato root diffusate (PRD), ddH2O or drug solvents were spread onto the plates and the plates were sealed with the parafilm. The grid with six equal concentric circles was placed under the assay plates and the centre was marked with a dot. Around 50-100 G. pallida J2s or C. elegans L2 s were pipetted with 5 μl of ddH2O onto the centre (origin), the plate was re-sealed and the total number of worms was counted as soon as the liquid had absorbed. The number of J2s in each concentric circle was counted after 1, 2 and 24 hours.
# G. pallida SER-7, sequence (A0A183BS20 whole entry, stated change not applied): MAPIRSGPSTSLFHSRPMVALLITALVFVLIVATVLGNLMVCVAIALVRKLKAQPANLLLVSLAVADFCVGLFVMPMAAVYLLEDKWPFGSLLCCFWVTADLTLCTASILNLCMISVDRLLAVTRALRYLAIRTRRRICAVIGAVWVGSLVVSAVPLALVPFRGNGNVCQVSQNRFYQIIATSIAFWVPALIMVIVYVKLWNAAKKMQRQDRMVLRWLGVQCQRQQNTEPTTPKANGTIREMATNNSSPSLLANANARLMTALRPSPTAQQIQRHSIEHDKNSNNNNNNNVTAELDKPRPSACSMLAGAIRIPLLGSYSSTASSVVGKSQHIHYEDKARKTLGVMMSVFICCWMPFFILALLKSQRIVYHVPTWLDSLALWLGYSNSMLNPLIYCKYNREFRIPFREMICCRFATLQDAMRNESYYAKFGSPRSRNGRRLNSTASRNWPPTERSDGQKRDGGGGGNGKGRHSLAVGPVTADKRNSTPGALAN
smiles,measurement,setting,value
"COC(=O)C(N)Cc1ccc(Cl)cc1.Cl (racemic) [CPA, 4-chloro-DL-phenylalanine methyl ester hydrochloride]",number of nematodes present in the roots 13 days after inoculation (root invasion),[1],significantly reduced
same,inhibition of pharyngeal pumping,[2]; tph-1 mutant,did not cause any further reduction
same,ability to inhibit pharyngeal pumping,[2]; tph-1 mutant expressing C. elegans tph-1,restored
same,inhibition of pharyngeal pumping,"[2]; wild type C. elegans, CPA 10 mM",significantly inhibited
same,stylet thrusting in response to fluoxetine,"[3]; 10 mM CPA overnight, 2 mM fluoxetine 30 min",reduced stylet thrusting
same,stylet thrusting in response to serotonin,"[3]; 10 mM CPA overnight, 10 mM serotonin 30 min",maintained their response
same,ability to inhibit pharyngeal pumping,[4],restored
NCCc1ccc(O)c(O)c1 [Dopamine],effect on stylet behaviour,[3],no effect
CNCCC(Oc1ccc(C(F)(F)F)cc1)c1ccccc1 (stereo not drawn) [fluoxetine],stimulation of stylet thrusting by the compound itself,[3],time-dependent and concentration-dependent stimulation; also recorded: stimulatory effects
same,exposure time at which maximal stylet response was seen,[3],30 min
same,maximally effective concentration for stylet thrusting,[3],2 mM
same,shape of stylet concentration response curve,[3]; response after 1 h,bell-shaped
same,stimulation of pharyngeal pumping in the absence of food,"[5]; 1 mM and 2 mM, or longer exposure at 500 μM",did not cause a stimulation
same,stimulation of pharyngeal pumping in the absence of food,[5]; C. elegans cat-1 mutant,not observed
same,exposure time of maximal stimulation of pharyngeal pumping,[5]; absence of food,1 h
same,low dose stimulation of pharyngeal pumping,[5]; cat-1 mutant expressing ppn-cat-1 (G. pallida),restored
same,low dose stimulation of pharyngeal pumping,[5]; cat-1 mutant expressing wild-type C. elegans cat-1,restored
same,stimulation of pharyngeal pumping in the absence of food,"[5]; wild type, 5 to 500 μM",concentration-dependent
CN(C)CCCN1c2ccccc2CCc2ccccc21 [imipramine],stimulation of stylet thrusting by the compound itself,[3],stimulatory effects
CSc1ccc2c(c1)C(N1CCN(C)CC1)Cc1ccccc1S2 (stereo not drawn) [methiothepin],emergence of J2s from eggs (hatching),[6],potently inhibited
same,number of nematodes present in the roots 13 days after inoculation (root invasion),[1],blocked
same,inhibition of stimulatory effect of serotonin on pumping,"[7]; 100 nM, transgenics expressing C. elegans ser-7, 100 μM serotonin",around 50%
same,effect on mod-1 dependent serotonin-induced paralysis,[8],blocked
same,antagonism of serotonin-induced stylet thrusting,[3]; G. pallida J2s,potent antagonist
same,effect on S-shaped posture and reduced movement induced by fluoxetine,[3],blocked
same,effect on mod-1 dependent serotonin-induced paralysis,[9],blocked
same,inhibition of stimulatory effect of serotonin on pumping,[10],around 50%
NCC(O)c1ccc(O)cc1 (stereo not drawn) [octopamine],effect on stylet behaviour,[3],no effect
"COC(=O)[C@H]1[C@H]2C[C@@H]3c4[nH]c5cc(OC)ccc5c4CCN3C[C@H]2C[C@@H](OC(=O)c2cc(OC)c(OC)c(OC)c2)[C@@H]1OC [reserpine, (3β,16β,17α,18β,20α)-11,17-Dimethoxy-18-[(3,4,5-trimethoxybenzoyl)oxy]yohimban-16-carboxylic acid methyl ester]",number of nematodes present in the roots 13 days after inoculation (root invasion),[1],significantly decreased
same,block of stimulatory effect of fluoxetine on stylet,"[3]; 5 μM, 24 h soak, 2 mM fluoxetine",near-complete block
same,recovery of fluoxetine-induced stylet response after washing,"[3]; 50 μM for 24 h, then water wash up to 22 hours",No recovery
same,block of stimulatory effect of fluoxetine on stylet,"[3]; 50 μM, 24 h soak, 2 mM fluoxetine",near-complete block
same,exposure time at which reduction of fluoxetine-stimulated stylet activity was evident,"[3]; 50 μM, 2 mM fluoxetine",4 h
same,exposure time to full block of fluoxetine-stimulated stylet activity,"[3]; 50 μM, 2 mM fluoxetine",8 h
same,exposure time to full inhibition of fluoxetine-stimulated stylet activity,"[3]; 50 μM, 2 mM fluoxetine 30 mins (FIG. 14B)",8 h
same,effect on stylet response to fluoxetine,[3]; 2 mM fluoxetine 30 min,concentration-dependent inhibition
same,effect on stylet response to fluoxetine,"[3]; 2 mM fluoxetine 30 min, listed as Reserpine",potently blocked
same,effect on stylet response to exogenous serotonin,[3]; 10 mM serotonin 30 min,no effect
same,effect on stylet response to exogenous serotonin,"[3]; 10 mM serotonin 30 min, listed as Reserpine",but not the response to serotonin
same,lowest concentration giving significant reduction of fluoxetine-induced stylet activity,"[3]; 24 h soak, 2 mM fluoxetine 30 min",5 nM
same,effect on S-shaped posture and reduced movement induced by fluoxetine,[3],blocked
same,independent stimulatory effect on stylet activity,[3]; reserpine alone,no independent stimulatory effect
same,dispersal from origin of agar arena (motility),[11],significant reduction
"NCCc1c[nH]c2ccc(O)cc12 [serotonin, 5-hydroxytryptamine]",EC50,"[7]; EC50, activation of pharyngeal pumping, transgenic psnb-1::Ce-ser-7a, cut head, 95% confidence 457 nM to 1.34 μM",782 nM
same,EC50,"[7]; EC50, increase in pharyngeal pumping, wild type worms, cut head, 95% confidence 164 nM to 304 nM",223 nM
same,pharyngeal pumping response,"[7]; ser-7 (tm1325) mutants, cut head, up to 100 μM",did not respond
same,stimulation of stylet thrusting by the compound itself,[3],time-dependent and concentration-dependent stimulation
same,exposure time at which maximal stylet response was seen,[3],30 min
same,maximally effective concentration for stylet thrusting,[3],10 mM
same,concentration above which stylet concentration-response curve reached maximum plateau,[3]; response after 1 h,above 2 mM
NCCc1ccc(O)cc1 [tyramine],effect on stylet behaviour,[3],no effect
